Assay results as given in patent publication EP1986670B1, “INTESTINAL ALPHA-GLUCOSIDASE INHIBITORS AND A PROCESS FOR THE ISOLATION AND USE THEREOF” (Council of Scientific and Industrial Research, priority 2006, dated 2007).

Target: intestinal α-glucosidase
Assay: Assay for intestinal α-glucosidase inhibition (p-nitrophenyl α-D-glucopyranoside substrate, read at 405 nm)
Type: biochemical, Rat
Settings: for Intestinal α-glucosidase inhibitory activity IC50 VALUES: crude enzyme from rat intestinal acetone powder, substrate p-nitrophenyl α-D-glucopyranoside, phosphate buffer pH6.8, triplicate
Experimental: Example 2: Assay for intestinal α-glucosidase inhibition:- Rat intestinal acetone powder (sigma chemicals, USA) in normal saline in ration of 100:1 (w/v) was sonicated properly. Supernatant obtained after centrifugation at 3000rpm x 30 min at 25°C was treated as crude source of mammalian intestinal α-glucosidase 10 µL of test samples prepared from either extracts or the molecules (5mg/ml in DMSO) were incubated in 100µL of 100 mM phosphate buffer (pH6.8) with 50 µL of crude enzyme for 5 minutes. Thereafter 50 µL of substrate (5mM, p-nitrophenyl α-D-glucopyranoside prepared in the buffer)was added. After 5 minutes incubation, released p-nitro phenol was read at 405nm spectrophotometrically. For control and blank readings at the place of test samples 10 µL of DMSO and at the place of substrate 50 µL of buffer was added: In order to compensate interference from colored compounds there individual blanks were prepared and spectophotpmetric reading were evaluated accordingly the percent inhibition was calculated as follows:- […] [formula] and 50% inhibitory concentration(IC50)for test samples were calculated by applying suitable regression analysis from the data obtain from serial dilution of the test samples concentrations. Each test sample and other control samples were run in triplicate.

Row | in vitro α-glucosidase inhibitory activity IC50 [µg/mL] | Intestinal α-glucosidase inhibitory activity IC50 VALUES [µg/mL] | SMILES
1 | 38.71 | 38.71 | O=c1cc(-c2ccccc2)oc2cc(O)c(O)c(O)c12 [Baicalein, 5,6,7-trihydroxy-2-phenyl-chromen-4-one]
2 | 57.59 | 57.59 | O=c1cc(-c2ccccc2)oc2cc(O)cc(O)c12 [Chrysin, 5,7-dihydroxy-2-phenyl-chromen-4-one]
3 |  | 95.39 | COc1cc(O)c2c(=O)cc(-c3ccccc3)oc2c1 [Methoxy chrysin, 5-hydroxy-7-methoxy-2-phenyl-chromen-4-one]
4 | 25.90 | 25.90 | COc1c(O)cc2oc(-c3ccccc3)cc(=O)c2c1O [Oroxylin-A, 5,7-Dihydroxy-6-methoxy-2-phenyl-chromen-4-one]
5 | 97.31 | 97.31 | COC(=O)[C@H]1O[C@@H](Oc2cc3oc(-c4ccccc4)cc(=O)c3c(O)c2OC)[C@H](O)[C@@H](O)[C@@H]1O [Oroxyloside methyl ester]
